Test results from patent US20260015360A1 (MOMA Therapeutics, Inc., priority 2023, published 2026).
Like-named read-outs stand apart in the source and are kept apart here.

Legend:
[1] = biological target: T1, biotinylated Avi-POLΘ[2-894] (Homo sapiens, UniProt O75417); test: ATPase assay (ADP-Glo): POLΘ-mediated ATP hydrolysis; details: read-out: Biochemical ATPase ADPGlo IC50
T1 construct: 1 nM biotinylated Avi-POLΘ[2-894]

DLD1 WT cells = test: DLD1 viability assay (CellTiter-Glo, 7 days), DLD1 WT; type: cell-based; details: Homo sapiens, DLD-1, 168 h
Description: (§1) The seeding densities are pre-determined from the growth curve kinetics performed to ensure log linear phase of cell growth for these 2 cell lines. These assay plates are then placed in the incubator at 37° C., 5% CO2, relative humidity>90% for a few hours before addition of test compounds. Compounds are dispensed using the Tecan HPD300 or Echo based on the plate map in the appropriate wells of the 384-well plates. […] After addition of the test compounds, the plates are incubated at 37° C., 5% CO2, relative humidity>90% for 7 days. CellTiter-Glo (Promega Cat. No. G7573), ATP detection reagent is prepared according to manufacturer's specifications. Cell assay plates are removed from incubator and bring to room temperature (RT) by letting them sit at bench top for at least 15 min. Using the MultiDrop liquid handler or a multichannel pipette, 35 μL/well of CTG is added and the plates are then placed shakes for 5 seconds, RT. These plates are then incubated for 30 minutes in the dark at RT before measuring luminescence using Spectramax/Enspire/Ensight/Envision/PheraSTAR.

DLD1 BRCA2 (−/−) cells = test: DLD1 viability assay (CellTiter-Glo, 7 days), DLD1 BRCA2 (−/−); type: cell-based; details: read-out: Viability IC50 (μM) DLD1 BRCA2 null
Description: as §1

T1 sequence (O75417 2-894 limits assumed): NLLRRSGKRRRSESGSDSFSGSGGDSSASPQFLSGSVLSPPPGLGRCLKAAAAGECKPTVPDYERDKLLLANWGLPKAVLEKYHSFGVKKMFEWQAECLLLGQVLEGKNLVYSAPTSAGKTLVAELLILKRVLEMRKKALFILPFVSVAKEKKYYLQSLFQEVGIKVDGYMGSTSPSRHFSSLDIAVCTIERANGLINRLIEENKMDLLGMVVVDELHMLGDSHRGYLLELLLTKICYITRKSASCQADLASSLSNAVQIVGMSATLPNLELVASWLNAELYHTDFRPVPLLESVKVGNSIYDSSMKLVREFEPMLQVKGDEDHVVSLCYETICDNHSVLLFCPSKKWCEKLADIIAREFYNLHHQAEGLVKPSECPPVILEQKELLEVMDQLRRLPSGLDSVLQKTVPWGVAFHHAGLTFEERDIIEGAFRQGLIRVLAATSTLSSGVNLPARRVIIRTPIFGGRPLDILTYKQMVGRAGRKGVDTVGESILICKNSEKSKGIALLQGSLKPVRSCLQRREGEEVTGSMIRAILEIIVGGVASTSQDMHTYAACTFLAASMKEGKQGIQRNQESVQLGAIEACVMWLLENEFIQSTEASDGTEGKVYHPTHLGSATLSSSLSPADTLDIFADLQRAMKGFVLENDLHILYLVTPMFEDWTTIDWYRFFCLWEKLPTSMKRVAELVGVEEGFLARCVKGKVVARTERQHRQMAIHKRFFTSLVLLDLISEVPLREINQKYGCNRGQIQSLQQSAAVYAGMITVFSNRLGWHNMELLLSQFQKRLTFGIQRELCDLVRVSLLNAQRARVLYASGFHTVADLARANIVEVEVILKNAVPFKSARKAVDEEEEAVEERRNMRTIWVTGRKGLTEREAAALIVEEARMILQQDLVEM

Structure (SMILES) | IC50 [1] | IC50 (DLD1 WT cells) | IC50 (DLD1 BRCA2 (−/−) cells; Homo sapiens, DLD-1, 168 h) | IC50 (DLD1 BRCA2 (−/−) cells)
Cc1cc(-c2c3cnccc3nn2C)c(C(=O)Nc2nc3ncc(-c4ccncc4)nc3s2)cn1 [Example 513, 6-methyl-4-(2-methyl-2H-pyrazolo[4,3-c]pyridin-3-yl)-N-(6-(pyridin-4-yl)thiazolo[4,5-b]pyrazin-2-yl)nicotinamide] | 15 to 50 nM |  |  | 
COc1cnc(Cl)cc1-c1cc(C)ncc1C(=O)Nc1nc2ncc(N3CCOC[C@H]3C(F)(F)F)nc2s1 [Example 416, (S)-2′-chloro-5′-methoxy-6-methyl-N-(6-(3-(trifluoromethyl)morpholino)thiazolo[4,5-b]pyrazin-2-yl)-[4,4′-bipyridine]-3-carboxamide] | 15 to 50 nM |  |  | 
Cc1cc(N2CCC[C@H](C#N)C2)c(C(=O)Nc2nc3ncc(-c4ccncc4)cc3s2)cn1 (single isomer, unassigned) [Example 143] | 150 to 900 nM |  |  | 
COc1cnc(Cl)cc1-c1cc(C)ncc1C(=O)Nc1nc2ncc(N3CC[C@@H](OC)[C@H](F)C3)nc2s1 [Example 456, 2′-chloro-N-(6-((3R,4R)-3-fluoro-4-methoxypiperidin-1-yl)thiazolo[4,5-b]pyrazin-2-yl)-5′-methoxy-6-methyl-[4,4′-bipyridine]-3-carboxamide] | 1 to 15 nM |  |  | 
COc1cnc(Cl)cc1-c1cc(C)ncc1C(=O)Nc1nc2ncc(N3CCOCC3C(F)F)nc2s1 (stereo not drawn) [Example 426, 2′-chloro-N-(6-(3-(difluoromethyl)morpholino)thiazolo[4,5-b]pyrazin-2-yl)-5′-methoxy-6-methyl-[4,4′-bipyridine]-3-carboxamide] | 15 to 50 nM |  |  | 
COc1cnc(Cl)cc1-c1cc(C)ncc1C(=O)Nc1nn2cc(C3CCCCC3)nc2s1 [Example 315] | 1 to 15 nM |  |  | 
COc1cnc(Cl)cc1-c1cc(C)ncc1C(=O)Nc1nc2ncc(N3CC[C@H](OC)[C@H](F)C3)nc2s1 [Example 453, 2′-chloro-N-(6-((3R,4S)-3-fluoro-4-methoxypiperidin-1-yl)thiazolo[4,5-b]pyrazin-2-yl)-5′-methoxy-6-methyl-[4,4′-bipyridine]-3-carboxamide] | 1 to 15 nM |  |  | 
COc1cnc(Cl)cc1-c1cc(C)ncc1C(=O)Nc1nc2ncc(N3CC[C@@](C)(OC)[C@@H](F)C3)nc2s1 (single isomer, unassigned) [Example 363, 2′-chloro-N-(6-((3S or R,4R or S)-3-fluoro-4-methoxy-4-methylpiperidin-1-yl)thiazolo[4,5-b]pyrazin-2-yl)-5′-methoxy-6-methyl-[4,4′-bipyridine]-3-carboxamide] | 15 to 50 nM |  |  | 
COc1cnc(Cl)cc1-c1cc(C)ncc1C(=O)Nc1nc2ncc(N3CCOC[C@@H]3C(F)(F)F)nc2s1 [Example 414, (R)-2′-chloro-5′-methoxy-6-methyl-N-(6-(3-(trifluoromethyl)morpholino)thiazolo[4,5-b]pyrazin-2-yl)-[4,4′-bipyridine]-3-carboxamide] | 15 to 50 nM |  |  | 
Cc1cc(N2CCN(c3nccs3)CC2)c(C(=O)Nc2nc3ncc(-c4ccncc4)cc3s2)cn1 [Example 159, 6-methyl-N-(6-(pyridin-4-yl)thiazolo[4,5-b]pyridin-2-yl)-4-(4-(thiazol-2-yl)piperazin-1-yl)nicotinamide] | 150 to 900 nM |  |  | 
COc1cnc(Cl)cc1-c1cc(C)ncc1C(=O)Nc1nc2ncc(C3=CCC(OC(F)(F)F)CC3)nc2s1 (stereo not drawn) [Example 420, 2′-chloro-5′-methoxy-6-methyl-N-(6-(4-(trifluoromethoxy)cyclohex-1-en-1-yl)thiazolo[4,5-b]pyrazin-2-yl)-[4,4′-bipyridine]-3-carboxamide] |  | 7.5 to 10 µM | 0.001 to 0.1 µM | 
COc1cnc(Cl)cc1-c1cc(C)ncc1C(=O)Nc1nc2ncc(C3=CCC(C)(C#N)CC3)nc2s1 (stereo not drawn) [Example 407, 2′-chloro-N-(6-(4-cyano-4-methylcyclohex-1-en-1-yl)thiazolo[4,5-b]pyrazin-2-yl)-5′-methoxy-6-methyl-[4,4′-bipyridine]-3-carboxamide] |  | > 10 µM | 0.001 to 0.1 µM | 
COc1cnc(Cl)cc1-c1cc(C)ncc1C(=O)Nc1nc2ncc(C3=CCC(O)(C(F)F)CC3)nc2s1 (stereo not drawn) [Example 396, 2′-chloro-N-(6-(4-(difluoromethyl)-4-hydroxycyclohex-1-en-1-yl)thiazolo[4,5-b]pyrazin-2-yl)-5′-methoxy-6-methyl-[4,4′-bipyridine]-3-carboxamide] |  | > 10 µM | 0.001 to 0.1 µM | 
COc1cnc(Cl)cc1-c1cc(C)ncc1C(=O)Nc1nc2ncc([C@H]3CCOC(C)(C)C3)nc2s1 (single isomer, unassigned) [Example 379, (S or R)-2′-chloro-N-(6-(2,2-dimethyltetrahydro-2H-pyran-4-yl)thiazolo[4,5-b]pyrazin-2-yl)-5′-methoxy-6-methyl-[4,4′-bipyridine]-3-carboxamide] |  | > 10 µM | 0.001 to 0.1 µM | 
COc1cnc(Cl)cc1-c1cc(C)ncc1C(=O)Nc1nc2ncc(N3CCO[C@H](C)[C@@H]3C)nc2s1 (single isomer, unassigned) [Example 400, 2′-chloro-N-(6-((2R or S,3S or R)-2,3-dimethylmorpholino)thiazolo [4,5-b]pyrazin-2-yl)-5′-methoxy-6-methyl-[4,4′-bipyridine]-3-carboxamide] |  | > 10 µM | 0.001 to 0.1 µM | 
COc1cnc(Cl)cc1-c1cc(C)ncc1C(=O)Nc1nc2ncc(N3C[C@H](C)O[C@@H](C)C3)nc2s1 [Example 436, 2′-chloro-N-(6-((2S,6S)-2,6-dimethylmorpholino)thiazolo [4,5-b]pyrazin-2-yl)-5′-methoxy-6-methyl-[4,4′-bipyridine]-3-carboxamide] |  | > 10 µM | 0.001 to 0.1 µM | 
COc1cnc(Cl)cc1-c1cc(C)ncc1C(=O)Nc1nc2ncc(N3CCC[C@H](C)C3)nc2s1 [Example 481, (S)-2′-chloro-5′-methoxy-6-methyl-N-(6-(3-methylpiperidin-1-yl)thiazolo[4,5-b]pyrazin-2-yl)-[4,4′-bipyridine]-3-carboxamide] |  | 7.5 to 10 µM | 0.25 to 0.5 µM | 
COc1cnc(Cl)cc1-c1cc(C)ncc1C(=O)Nc1nc2ncc(C3=CCC(OC(F)F)CC3)nc2s1 (stereo not drawn) [Example 405, 2′-chloro-N-(6-(4-(difluoromethoxy)cyclohex-1-en-1-yl)thiazolo[4,5-b]pyrazin-2-yl)-5′-methoxy-6-methyl-[4,4′-bipyridine]-3-carboxamide] |  | > 10 µM | 0.001 to 0.1 µM | 
COc1cnc(Cl)cc1-c1cc(C)ncc1C(=O)Nc1nc2ncc(N3CCC(OC)C(F)(F)C3)nc2s1 (single isomer, unassigned) [Example 444, (R or S)-2′-chloro-N-(6-(3,3-difluoro-4-methoxypiperidin-1-yl)thiazolo[4,5-b]pyrazin-2-yl)-5′-methoxy-6-methyl-[4,4′-bipyridine]-3-carboxamide] |  | > 10 µM | 0.001 to 0.1 µM | 
COc1cnc(Cl)cc1-c1cc(C)ncc1C(=O)Nc1nc2ncc(N3CCC4(CCO4)CC3)nc2s1 [Example 482, N-(6-(1-oxa-7-azaspiro[3.5]nonan-7-yl)thiazolo[4,5-b]pyrazin-2-yl)-2′-chloro-5′-methoxy-6-methyl-[4,4′-bipyridine]-3-carboxamide] |  | > 10 µM | 0.001 to 0.1 µM | 
COc1cnc(Cl)cc1-c1cc(C)ncc1C(=O)Nc1nc2ncc(N3CCC(O)C(F)(F)C3)nc2s1 (single isomer, unassigned) [Example 457, (S or R)-2′-chloro-N-(6-(3,3-difluoro-4-hydroxypiperidin-1-yl)thiazolo[4,5-b]pyrazin-2-yl)-5′-methoxy-6-methyl-[4,4′-bipyridine]-3-carboxamide] |  | > 10 µM |  | 0.1 to 0.25 µM
COc1cnc(Cl)cc1-c1cc(C)ncc1C(=O)Nc1nc2ncc(N3CCOC(C(F)F)C3)nc2s1 (stereo not drawn) [Example 429, 2′-chloro-N-(6-(2-(difluoromethyl)morpholino)thiazolo[4,5-b]pyrazin-2-yl)-5′-methoxy-6-methyl-[4,4′-bipyridine]-3-carboxamide] |  | > 10 µM | 0.001 to 0.1 µM | 
COc1cnc(Cl)cc1-c1cc(C)ncc1C(=O)Nc1nc2ncc(N3CCC4(CCCO4)CC3)nc2s1 [Example 459, N-(6-(1-oxa-8-azaspiro[4.5]decan-8-yl)thiazolo[4,5-b]pyrazin-2-yl)-2′-chloro-5′-methoxy-6-methyl-[4,4′-bipyridine]-3-carboxamide] |  | > 10 µM | 0.001 to 0.1 µM | 
COc1cnc(Cl)cc1-c1cc(C)ncc1C(=O)Nc1nc2ncc(N3CCO[C@@H](C)C3)nc2s1 [Example 490, (S)-2′-chloro-5′-methoxy-6-methyl-N-(6-(2-methylmorpholino)thiazolo[4,5-b]pyrazin-2-yl)-[4,4′-bipyridine]-3-carboxamide] |  | > 10 µM | 0.001 to 0.1 µM | 
CNC1CCN(c2cnc3nc(NC(=O)c4cnc(C)cc4-c4cc(Cl)ncc4OC)sc3n2)CC1(F)F (stereo not drawn) [Example 455, 2′-chloro-N-(6-(3,3-difluoro-4-(methylamino)piperidin-1-yl)thiazolo[4,5-b]pyrazin-2-yl)-5′-methoxy-6-methyl-[4,4′-bipyridine]-3-carboxamide] |  | > 10 µM | 0.001 to 0.1 µM | 
COc1cnc(Cl)cc1-c1cc(C)ncc1C(=O)Nc1nc2ncc(N3CC[C@@](C)(O)[C@@H](F)C3)nc2s1 (single isomer, unassigned) [Example 376, 2′-chloro-N-(6-((3S or R,4R or S)-3-fluoro-4-hydroxy-4-methylpiperidin-1-yl)thiazolo[4,5-b]pyrazin-2-yl)-5′-methoxy-6-methyl-[4,4′-bipyridine]-3-carboxamide] |  | > 10 µM | 0.001 to 0.1 µM | 
